Measured values reported in US20220323406A1, “METHODS AND COMPOSITIONS FOR DIFFERENTIATING STEM CELLS” (Massachusetts Institute of Technology, priority 2019, published 2022).

Legend:
[1] = test system: ENR+CD organoids (ISC to Paneth cell differentiation); assay: Primary screen: basal (non-stimulated) lysozyme secretion LYZ.NS, 2.5-D 384-well ENR+CD organoid differentiation; assay type: cell-based, mouse; details: primary screen; for Z.LYZ.NS: standard z score
From the text: (§1) High-throughput screening.

[2] = test system: ENR+CD organoids (ISC to Paneth cell differentiation); assay: Primary screen: CCh-stimulated lysozyme secretion LYZ.S, 2.5-D 384-well ENR+CD organoid differentiation; assay type: cell-based, mouse; details: primary screen
From the text: as §1

[3] = test system: ENR+CD organoids; assay: Primary screen: ATP (CellTiter-Glo 3D, CTG) cell number/viability, 2.5-D 384-well ENR+CD organoids; details: primary screen; for Z.CTG: standard z score;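 on all read-outs here: compounds given at plating and again on day 3 over a 6-day differentiation from ENR+CV stem-cell-enriched precursors, ATP measured on day 6, plate median as control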

Row | Compound | Dose.FC.LYZ.NS ([1]; dose 0.08 uM) [log2 fold change] | Dose.FC.LYZ.NS ([1]; dose 0.40 uM) [log2 fold change] | Dose.FC.LYZ.NS ([1]; dose 2.00 uM) [log2 fold change] | Dose.FC.LYZ.NS ([1]; dose 10.00 uM) [log2 fold change] | Z.LYZ.NS ([1]; dose 0.08 uM) | Z.LYZ.NS ([1]; dose 0.40 uM) | Z.LYZ.NS ([1]; dose 2.00 uM) | Z.LYZ.NS ([1]; dose 10.00 uM) | Dose.FC.LYZ.S ([2]; dose 0.08 uM) [log2 fold change] | Dose.FC.LYZ.S ([2]; dose 0.40 uM) [log2 fold change] | Dose.FC.LYZ.S ([2]; dose 2.00 uM) [log2 fold change] | Dose.FC.LYZ.S ([2]; dose 10.00 uM) [log2 fold change] | Dose.FC.CTG ([3]; dose 0.08 uM) [log2 fold change] | Dose.FC.CTG ([3]; dose 0.40 uM) [log2 fold change] | Dose.FC.CTG ([3]; dose 2.00 uM) [log2 fold change] | Dose.FC.CTG ([3]; dose 10.00 uM) [log2 fold change] | Z.CTG ([3]; dose 0.08 uM) | Z.CTG ([3]; dose 0.40 uM) | Z.CTG ([3]; dose 2.00 uM) | Z.CTG ([3]; dose 10.00 uM)
1 | CCN(CC)C(=O)/C(C#N)=C/c1cc(O)c(O)c([N+](=O)[O-])c1 [Entacapone] | 0.136 | 0.012 | 0.085 | 0.100 | 1.183 | 0.102 | 0.744 | 0.870 | 0.020 | 0.024 | 0.072 | 0.027 | −0.115 | −0.065 | 0.206 | −0.391 | – | – | – | –
2 | CNC(=O)c1ccc(N2C(=S)N(c3ccc(C#N)c(C(F)(F)F)c3)C(=O)C2(C)C)cc1F [Enzalutamide (MDV3100)] | 0.162 | 0.166 | 0.024 | 0.094 | 1.411 | 1.446 | 0.210 | 0.820 | 0.176 | 0.276 | 0.077 | 0.076 | 0.195 | 0.256 | 0.076 | 0.146 | 0.465 | 0.611 | 0.181 | 0.348
3 | Cn1cc(C2=C(c3cn(C4CCN(Cc5ccccn5)CC4)c4ccccc34)C(=O)NC2=O)c2ccccc21 [Enzastaurin (LY317615)] | 0.085 | 0.131 | 0.053 | −0.116 | 0.744 | 1.143 | 0.458 | −1.012 | 0.109 | 0.251 | 0.053 | −0.226 | 0.236 | 0.475 | 0.251 | −0.081 | 0.565 | 1.135 | 0.600 | −0.194
4 | CCOc1ccccc1-n1c(C(C)N2CCN(C(=O)COc3ccc(Cl)cc3)CC2)nc2ccccc2c1=O (stereo not drawn) [Erastin] | 0.157 | 0.158 | 0.157 | −0.015 | 1.368 | 1.375 | 1.367 | −0.133 | 0.170 | 0.160 | 0.106 | 0.039 | 0.225 | 0.285 | 0.380 | 0.298 | – | – | – | –
5 | COc1ccc2nc([S@@+]([O-])Cc3ncc(C)c(OC)c3C)[nH]c2c1 [Esomeprazole Sodium] | 0.086 | 0.233 | 0.034 | −0.016 | 0.747 | 2.030 | 0.300 | −0.139 | 0.146 | 0.174 | 0.043 | 0.021 | 0.288 | 0.199 | 0.386 | 0.271 | – | – | – | –
6 | CCc1cccc2c3c([nH]c12)C(CC)(CC(=O)O)OCC3 (stereo not drawn) [Etodolac] | 0.046 | 0.036 | 0.052 | −0.009 | 0.400 | 0.314 | 0.452 | −0.078 | 0.034 | 0.127 | 0.070 | −0.011 | −0.061 | 0.049 | 0.008 | 0.023 | – | – | – | –
7 | CCOC(=O)c1cncn1[C@H](C)c1ccccc1 [Etomidate] | −0.008 | 0.037 | 0.015 | −0.001 | −0.065 | 0.318 | 0.131 | −0.010 | 0.053 | 0.048 | 0.054 | −0.008 | 0.084 | 0.006 | 0.163 | 0.039 | – | – | – | –
8 | CO[C@H]1C[C@@H]2CC[C@@H](C)[C@@](O)(O2)C(=O)C(=O)N2CCCC[C@H]2C(=O)O[C@H]([C@H](C)C[C@@H]2CC[C@@H](OCCO)[C@H](OC)C2)CC(=O)[C@H](C)/C=C(\C)[C@@H](O)[C@@H](OC)C(=O)[C@H](C)C[C@H](C)/C=C/C=C/C=C/1C [Everolimus (RAD001)] | 0.068 | 0.110 | −0.003 | −0.024 | 0.590 | 0.956 | −0.030 | −0.210 | −0.012 | −0.007 | −0.039 | −0.096 | 0.392 | 0.127 | 0.132 | −0.111 | 0.936 | 0.304 | 0.314 | −0.266
9 | Cc1nc(C(=O)NCC(=O)O)c(O)c2ccc(Oc3ccccc3)cc12 [FG-4592] | 0.077 | 0.170 | 0.094 | 0.030 | 0.673 | 1.484 | 0.822 | 0.265 | 0.083 | 0.234 | 0.152 | 0.071 | 0.327 | 0.284 | 0.290 | 0.238 | – | – | – | –
10 | CC1=C(C(=O)OC2CCCCC2)C(c2ccc([N+](=O)[O-])cc2)C2=C(CC(C)(C)CC2=O)N1 (stereo not drawn) [FLI-06] | 0.050 | −0.026 | −0.054 | −0.140 | 0.439 | −0.230 | −0.466 | −1.216 | 0.079 | 0.010 | −0.077 | −0.170 | 0.089 | 0.095 | 0.076 | −0.343 | 0.213 | 0.226 | 0.182 | −0.819
11 | CCOC(=O)C1=C(C)NC(C)=C(C(=O)OC)C1c1cccc(Cl)c1Cl (stereo not drawn) [Felodipine] | 0.001 | −0.033 | 0.002 | −0.056 | 0.010 | −0.284 | 0.017 | −0.487 | 0.008 | −0.042 | −0.003 | −0.067 | −0.078 | −0.319 | 0.011 | 0.032 | – | – | – | –
